The results in this text go back to US8697742B2, “BCRP/ABCG2 inhibitor” (Kabushiki Kaisha Yakult Honsha, priority 2005, dated 2014).

≈ marks a conversion by molar mass, not a printed value. Where a name gives a salt, the structure may show the parent alone.

The subject of the first assay is A549/SN-38-4 cells. Nature of the assay: Effect of overcoming SN-38 resistance of BCRP-expressing A549/SN-38-4 cells. Type of assay: cell-based, human. The following applies: Homo sapiens, A549, 48 h, concentration for 50% reduction of relative SN-38 resistance value (IC50 A549/SN-38-4 / IC50 A549); 48 hours culture with SN-38; read-out: Effect of overcoming resistance EC50. As for the experimental part: The human lung cancer A549 cells or the A549/SN-38-4 cells were suspended in a Ham's F-12 medium containing 10% FBS, 100 U/mL of penicillin, and 100 μg/mL of streptomycin (10% FBS/Ham's F-12), and the resultant suspension was inoculated into a 96-well microplate (2×10^3 cells/50 μL/well), followed by culturing at 5% CO2 and 37° C. overnight. […] After completion of culturing, the number of viable cells was counted by use of a viable cell counting reagent [TetraColor ONE (trademark), product of Seikagaku Corporation] according to the attached instruction manual. […] The greater the relative resistance value, the higher the level of acquired resistance.
In the case of `COc1ccc2nc(Cl)c(/C=C(\C#N)c3ccsc3)cc2c1` [Compound 82, (Z)-3-(2-chloro-6-methoxy-quinolin-3-yl)-2-thiophen-3-yl-acrylonitrile], the EC50 is 0.078 µg/mL (≈ 0.239 µM).

Regarding `COc1ccc2nc(Cl)c(/C=C(\C#N)n3nnc4ccccc43)cc2c1` [Compound 83, (E)-2-benzotriazol-1-yl-3-(2-chloro-6-methoxy-quinolin-3-yl)-acrylonitrile], the EC50 is 0.19 µg/mL (≈ 0.525 µM).

On to `N#C/C(=C\c1ccnc2ccccc12)c1ccccn1` [Compound 85, (Z)-2-pyridin-2-yl-3-quinolin-4-yl-acrylonitrile], for which the EC50 turned out to be 0.23 µg/mL (≈ 0.894 µM).

Regarding `N#C/C(=C\c1ccnc2ccccc12)c1cccnc1` [Compound 86, (Z)-2-pyridin-3-yl-3-quinolin-4-yl-acrylonitrile], the EC50 turned out to be 0.12 µg/mL (≈ 0.466 µM).

On to `N#C/C(=C\c1ccnc2ccccc12)c1cccs1` [Compound 87, (E)-3-quinolin-4-yl-2-thiophen-2-yl-acrylonitrile], for which the EC50 stood at 0.046 µg/mL (≈ 0.175 µM).

With `N#C/C(=C\c1ccnc2ccccc12)c1ccsc1` [Compound 88, (Z)-3-quinolin-4-yl-2-thiophen-3-yl-acrylonitrile], the EC50 turned out to be 0.07 µg/mL (≈ 0.267 µM).

On to `N#C/C(=C\c1csc2ccccc12)c1nc2ccccc2s1` [Compound 90, (E)-3-benzo[b]thiophen-3-yl-2-benzothiazol-2-yl-acrylonitrile], for which the EC50 was 0.46 µg/mL (≈ 1.44 µM).

Regarding `N#C/C(=C\c1cc2ccccc2o1)c1coc2ccccc12` [Compound 91, (Z)-3-benzofuran-2-yl-2-benzofuran-3-yl-acrylonitrile], the EC50 stood at 0.52 µg/mL (≈ 1.82 µM).

On to `Cn1cc(/C=C(\C#N)c2nc3ccccc3s2)c2ccccc21` [Compound 92, (E)-2-benzothiazol-2-yl-3-(1-methyl-1H-indol-3-yl)-acrylonitrile], for which the EC50 was 0.041 µg/mL (≈ 0.13 µM).

For the molecule `COc1ccc(/C(C#N)=C/c2c3ccccc3c(Cl)c3ccccc23)cc1OC` [Compound 93, (Z)-3-(10-chloro-anthracen-9-yl)-2-(3,4-dimethoxy-phenyl)-acrylonitrile], the EC50 came out at 0.28 µg/mL (≈ 0.7 µM).

Take `CCN(CC)CC(=O)OC1CCN(c2ccc(/C=C(\C#N)c3ccc(OC)c(OC)c3)s2)CC1.Cc1ccc(S(=O)(=O)O)cc1` [Compound 96, 1-[5-[(Z)-2-cyano-2-(3,4-dimethoxy-phenyl)-vinyl]-thiophen-2-yl]-piperidin-4-yl diethylamino-acetate p-toluenesulfonate]: the EC50 stood at 0.12 µg/mL.

With `CCN(CC)C(=O)OC1CCN(c2ccc(/C=C(\C#N)c3ccc(OC)c(OC)c3)s2)CC1` [Compound 97, 1-[5-[(Z)-2-cyano-2-(3,4-dimethoxy-phenyl)-vinyl]-thiophen-2-yl]-piperidin-4-yl diethyl-carbamate], the EC50 worked out at 0.078 µg/mL (≈ 0.166 µM).

With `CCN(CC)CCN(C)C(=O)CCC(=O)OC1CCN(c2ccc(/C=C(\C#N)c3ccc(OC)c(OC)c3)s2)CC1` [Compound 98, 1-[5-[(Z)-2-cyano-2-(3,4-dimethoxy-phenyl)-vinyl]-thiophen-2-yl]-piperidin-4-yl N-(2-diethylamino-ethyl)-N-methyl-succinamate hydrochloride], the EC50 is 0.1 µg/mL.

For the molecule `CCN(CC)c1ccc(NC(=O)CCC(=O)OC2CCN(c3ccc(/C=C(\C#N)c4ccc(OC)c(OC)c4)s3)CC2)cc1` [Compound 99, 1-[5-[(Z)-2-cyano-2-(3,4-dimethoxy-phenyl)-vinyl]-thiophen-2-yl]-piperidin-4-yl N-(4-diethylamino-phenyl)-succinamate], the EC50 came out at 0.063 µg/mL (≈ 0.102 µM).

Still in this assay, the particulars now being: Homo sapiens, A549, 48 h, read-out: Effect of overcoming resistance EC50, concentration for 50% reduction of relative SN-38 resistance value (IC50 A549/SN-38-4 / IC50 A549); 48 hours culture with SN-38.
Take `COc1ccc(/C(C#N)=C/c2cc3ccccc3c3ccccc23)cc1OC` [Compound 95, (Z)-2-(3,4-dimethoxy-phenyl)-3-phenanthren-9-yl-acrylonitrile]: the EC50 amounted to 0.008 µg/mL (≈ 0.0219 µM).
